Source: patent US11780868B1, “Homoleptic metal coordination complexes as antifungal agents” (King Abdulaziz University, priority 2023, dated 2023)
≈ marks a conversion by molar mass, not a printed value. Each block holds one molecule with its values, some of them ahead of it.

Key:
C. albicans 4251 [1] = assay: Cell count and viability assay (Muse cell analyser); format: cell-based, Candida albicans; conditions: C. albicans 4251, hydrogen peroxide 10 mM 1:1 with inoculum, 24 h; untreated 90.9%
Method: (§1) Quantification of Live/Dead C. albicans cells in response to C1 was carried out. The actual count of viable and dead cells of C. albicans by treatment of C1 was monitored by Cell Count and Viability assay kit. An inoculum (1×10^6 cells/mL) of both Flz sensitive (C. albicans 4251) and resistant (C. albicans 5112) C. albicans strains was prepared followed by treatment with various concentrations of C1 (0.5×MIC, 1×MIC and MFC) for 24 h at 37° C. and 150 rpm. For the negative control, only inoculum treated with 1% DMSO was used and for the positive control, hydrogen peroxide (10 mM) was used in a 1:1 ratio with the inoculum. Following incubation, the cells were then washed in PBS and centrifuged at 4000 rpm for 5 minutes at 4° C. and the final pellet was resuspended in PBS. The Cell Count and Viability assay samples were prepared by mixing 190 μL of Luminex Cell Viability Dilution Buffer and 10 μL of the sample in a 1.5 mL Eppendorf tube and incubated in the dark for 5 min at room temperature. All samples were analysed by a Guava® Muse® Cell Analyser (Luminex A DiaSorin Company, USA).

C. albicans 5112 [2] = assay: as above; format: cell-based, Candida albicans; conditions: C. albicans 5112, hydrogen peroxide 10 mM 1:1 with inoculum, 24 h; untreated 86.8%
Method: as §1

C. albicans 4251 [3] = assay: JC-10 mitochondrial membrane potential assay; format: cell-based, Candida albicans; conditions: C. albicans 4251, H2O2 treated positive control; negative control 2.65
Method: (§2) To examine the effect of C1 on the induction of cellular apoptosis in C. albicans cells, crucial apoptotic markers were observed. For this purpose, C. albicans 4251 and C. albicans 5112 cells were subjected to protoplast preparation by utilizing a method described previously by Srivastava et al. in 2020 through their research study. […] Later on, the cells were washed and incubated for 10 min at room temperature in protoplast buffer-1 (1M sorbitol, 0.05M tris base, 0.01M MgCl2, 0.03M DTT, pH 7.4). The cells were spun at 1500 rpm for 5 min and the pellet was resuspended in protoplast buffer-2 (1M sorbitol, 0.05M tris base, 0.01M MgCl2, 0.001M DTT, pH 7.4) supplemented with […] enzyme (1 μg/mL) and incubated for 1 h at room temperature. Afterwards, the cell suspension was again centrifuged, and the pellet was resuspended and incubated for 20 min at room temperature in protoplast buffer-3 (1M sorbitol, 0.05M tris base, 0.01M MgCl2, pH 7.4). A final washing (1500 rpm for 5 min) was given to the cells and the pellet consisting of C. albicans protoplasts was resuspended in fresh PBS and was stored at 4° C. until further use. Measurement of mitochondrial membrane potential in C. albicans was carried out and the potential of C1 in destabilising mitochondrial membrane potential (Δψm) in C. albicans was established by JC-10 mitochondrial membrane potential assay kit (Abeam, Cambridge, UK). The experiment was performed according to manufacturer instructions. 90 μL of prepared protoplast of C. albicans 4251 and C. albicans 5112 was added to a 96-well microplate (with black walls and clear bottom), followed by the addition of 50 μL/well of JC-10 dye-loading solution. The microplate was incubated for 1 hour at 37° C. in the dark. This was followed by the addition of 50 μL/well of assay buffer B. The microplate was then immediately centrifuged at 800 rpm for 2 minutes. The fluorescence intensity was monitored at an Ex/Em=490/530 nm (present in apoptotic cells, monomeric form and green fluorescence; represented as X) and 540/590 nm (present in live cells, dye aggregates and red fluorescence; represented as Y) using a SpectraMax® ID3 Multimode Plate Reader (Molecular Devices, LLC., USA). The ratio between the aggregate and monomeric forms was measured to find the change in mitochondrial membrane potential. The mitochondrial membrane depolarization is indicated by decreasing ratio values.

C. albicans 5112 [4] = assay: JC-10 mitochondrial membrane potential assay; format: cell-based, Candida albicans; conditions: C. albicans 5112, H2O2 treated positive control; negative control 2.92
Method: as §2

C. albicans 4251 [5] = assay: Cell cycle analysis (Muse cell analyser); format: cell-based, Candida albicans; conditions: 10 mM H2O2 positive control; stated for C. albicans without naming a strain
Method: The effect of C1 on the cell cycle of C. albicans 4251 and C. albicans 5112 was determined using Cell Cycle kit MCH100106 in a Guava® Muse® Cell Analyser according to the manufacturer's instructions. The cells of the C. albicans (1×10^6 cells/mL) were exposed to C1 for 4 h at different concentrations (0.5×MIC and 1×MIC). Each sample was rinsed with fresh PBS after exposure, and the pellet was fixed in 1 mL of 70% ice-cold ethanol (Sigma Aldrich Co., USA). The Cell Cycle assay was prepared by mixing the 100 μL of Luminex® Cell Cycle dye and 100 μL of the prewashed fixed cells and incubated in the dark for 30 minutes at room temperature. All samples were analysed by a Guava® Muse® Cell Analyser (Luminex® A DiaSorin Company, USA). During the experiment, both the negative (without treatment) and positive control (10 mM H2O2 treated) were used.

C. albicans 4085 = assay: Broth microdilution MIC/MFC (CLSI M27-A4); format: cell-based, Candida albicans; conditions: Candida albicans; C. albicans 4085 (Flz resistant), 37° C., 24 h; read-out: Median MIC
Method: (§3) In this work, nine strains of C. albicans procured from Charlotte Maxeke Johannesburg Academic Hospital under ethical clearance number M000402 were employed (Table 1). All the C. albicans strains were preserved at −70° C. deep freezer in 50% (v/v) anhydrous glycerol (Sigma-Aldrich St. Louis, MO, U.S.A.). For conducting experiments, cultures were revived in Sabouraud Dextrose broth (SDB; Merck, Germany) at 37° C. and 120 rpm for 24 h. Additionally, the RPMI 1640 medium and MOPS (Sigma-Aldrich, USA) were prepared as described by the Clinical and Laboratory Standards Institute (CLSI).
(§4) The activity of C1 against Candida species (n=9) was first estimated in terms of minimum inhibitory concentration (MIC) and minimum fungicidal concentration (MFC). […] Briefly, stock solutions of Flz (used as reference; Sigma-Aldrich St. Louis, MO, U.S.A.) and the synthesized compound was prepared in 1% dimethyl sulfoxide (DMSO; Sigma-Aldrich St. Louis, MO, U.S.A.) and the test concentrations were formulated in RPMI 1640-MOPS medium. A two-fold dilution of the compound (1250-0.61 μg/mL) and reference drug (128-0.062 μg/mL) was prepared in 96 well plates which were then seeded with C. albicans inoculum (1×10^6 cells/mL) and incubated at 37° C. for 24 h. In every set of experiments, sterility control, 1% DMSO as negative control and growth control were included. Growth was quantified by reading the optical density at 620 nm in a UV-1800 SHIMADZU spectrophotometer (Shimadzu Corporation, Japan). The MIC was determined as the lowest concentration that inhibited the growth of Candida strains. To determine MFC, each well without visible growth was subcultured onto the SDA plates for 24 hours at 37° C. The lowest concentration killing ≥99.9% of Candida was taken as the MFC value of the test compound.

C. albicans 4106 = assay: Broth microdilution MIC/MFC (CLSI M27-A4); format: cell-based, Candida albicans; conditions: Candida albicans; C. albicans 4106 (Flz resistant), 37° C., 24 h; read-out: Median MIC
Method: as §3, §4

C. albicans 4175 = assay: Broth microdilution MIC/MFC (CLSI M27-A4); format: cell-based, Candida albicans; conditions: Candida albicans; C. albicans 4175 (Flz sensitive), 37° C., 24 h; read-out: Median MIC
Method: as §3, §4

C. albicans 4180 = assay: Broth microdilution MIC/MFC (CLSI M27-A4); format: cell-based, Candida albicans; conditions: Candida albicans; C. albicans 4180 (Flz sensitive), 37° C., 24 h; read-out: Median MIC
Method: as §3, §4

C. albicans 4251 [6] = assay: Broth microdilution MIC/MFC (CLSI M27-A4); format: cell-based, Candida albicans; conditions: Candida albicans; C. albicans 4251 (Flz sensitive), 37° C., 24 h; read-out: Median MIC
Method: as §3, §4

C. albicans 4324 = assay: Broth microdilution MIC/MFC (CLSI M27-A4); format: cell-based, Candida albicans; conditions: Candida albicans; C. albicans 4324 (Flz resistant), 37° C., 24 h; read-out: Median MIC
Method: as §3, §4

C. albicans 4554 = assay: Broth microdilution MIC/MFC (CLSI M27-A4); format: cell-based, Candida albicans; conditions: Candida albicans; C. albicans 4554 (Flz sensitive), 37° C., 24 h; read-out: Median MIC
Method: as §3, §4

C. albicans 5112 [7] = assay: Broth microdilution MIC/MFC (CLSI M27-A4); format: cell-based, Candida albicans; conditions: Candida albicans; C. albicans 5112 (Flz resistant), 37° C., 24 h; read-out: Median MIC
Method: as §3, §4

C. albicans SC5314 = assay: Broth microdilution MIC/MFC (CLSI M27-A4); format: cell-based, Candida albicans; conditions: Candida albicans; C. albicans SC5314 (control), 37° C., 24 h; read-out: Median MIC
Method: as §3, §4

melting point: 119 °C
Structure (SMILES): Oc1ccc(Br)cc1/C=N/c1ccc2c(c1)OCCO2 [L, (E)-4-bromo-2-{[(2,3-dihydrobenzo[b][1,4]dioxin-6-yl)imino]methyl}phenol]

Structure (SMILES): OO [Complex H2O2, hydrogen peroxide, reference compound]
live cells (C. albicans 4251 [1]): 19.9%
live cells (C. albicans 5112 [2]): 26.1%
average fluorescence ratio JC-10 aggregates/JC-10 monomers (C. albicans 4251 [3]): 2.5
average fluorescence ratio JC-10 aggregates/JC-10 monomers (C. albicans 5112 [4]): 2.75
impact on the cell cycle (C. albicans 4251 [5]): not much impact

MIC (C. albicans 4085): 16 mg/L (≈ 52.2 µM)
MIC (C. albicans 4106): 32 mg/L (≈ 104 µM)
MIC (C. albicans 4175): 0.25 mg/L (≈ 0.816 µM)
MIC (C. albicans 4180): 0.25 mg/L (≈ 0.816 µM)
MIC (C. albicans 4251 [6]): 0.5 mg/L (≈ 1.63 µM)
MIC (C. albicans 4324): 32 mg/L (≈ 104 µM)
MIC (C. albicans 4554): 0.25 mg/L (≈ 0.816 µM)
MIC (C. albicans 5112 [7]): 64 mg/L (≈ 209 µM)
MIC (C. albicans SC5314): 0.25 mg/L (≈ 0.816 µM)
Structure (SMILES): OC(Cn1cncn1)(Cn1cncn1)c1ccc(F)cc1F [Flz, fluconazole, reference compound]
